{"source": "patent US20250262222A1", "about": "“HETEROCYCLIC COMPOUNDS, COMPOSITIONS THEREOF, AND METHODS OF TREATMENT THEREWITH” (BeiGene Switzerland GmbH, priority 2022, published 2025)"}
{"tested_on": "pERK1/2(THR202/TYR204) level in SW620 cell line", "experiment": "KRAS G12V pERK assay", "type": "cell-based", "conditions": "Homo sapiens, SW-620; SW620 cells, 2 hrs compound treatment, HTRF", "protocol": "(§1) SW620 cell line was used in this study. Cells were maintained in RPMI 1640 supplemented with 10% fetal bovine serum (Thermo Fisher), 50 units/mL penicillin and streptomycin (Thermo Fisher) and kept at 37° C. in a humidified atmosphere of 5% CO2 in air. Cells were reinstated from frozen stocks that were laid down within 30 passages from the original cells purchased. 40000 cells per well were seeded into a 96-well plate and incubated overnight. Cells were treated with a 10-point dilution series. The final compound concentration is from 0 to 10 μM. After 2 hrs compound treatment, cells were lysed, and the pERK1/2(THR202/TYR204) level in the cell lysates was detected by HTRF kit (Cisbio). In brief, a total of 16 μL of cell lysate from each well of a 96-well plate was transferred to a 384-well white assay plate. Lysate from each well was incubated with 2 μL of Eu3+-cryptate (donor) labeled anti-phospho-ERK1/2 and 2 μL of D2 (acceptor) labeled anti-phospho-ERK1/2 antibodies (Cisbio) overnight in dark at room temperature. When donor and acceptor are in close proximity, excitation of the donor with laser triggers a Fluorescence Resonance Energy Transfer (FRET) towards the acceptor, which in turn fluoresces at 655 nm wavelength. FRET signals were measured using a PHERAstar FSX reader (BMG Labtech). IC50 determination was performed by fitting the curve of percent inhibition versus the log of the inhibitor concentration using Dotmatics.", "units": {"IC50": "nM"}}
{"smiles": "C#Cc1c(F)ccc2cc(O)cc(-c3nc4c5c(nc(OC[C@@H]6C[C@@H](F)CN6C)nc5c3F)N3CCOC[C@H]3CO4)c12", "note": "[Example 7, 5-ethynyl-6-fluoro-4-((S)-1-fluoro-11-(((2S,4R)-4-fluoro-1-methylpyrrolidin-2-yl)methoxy)-5a,6,8,9-tetrahydro-5H-4,7-dioxa-3,9a,10,12-tetraazabenzo[4,5]cyclohepta[1,2,3-de]naphthalen-2-yl)naphthalen-2-ol]", "IC50": 72}
{"smiles": "Nc1cc(Cl)c(C(F)(F)F)c(-c2nc3c4c(nc(OC[C@@]56CCCN5C[C@H](F)C6)nc4c2F)N2CCOC[C@@H]2CCO3)c1", "note": "[Example 16, 3-chloro-5-((S)-1-fluoro-12-(((2R,7aS)-2-fluorotetrahydro-1H-pyrrolizin-7a(5H)-yl)methoxy)-5,6,6a,7,9,10-hexahydro-4,8-dioxa-3,10a,11,13-tetraazabenzo[4,5]cycloocta[1,2,3-de]naphthalen-2-yl)-4-(trifluoromethyl)aniline]", "IC50": 24}
{"smiles": "C#Cc1c(F)ccc2cc(O)cc(-c3nc4c5c(nc(OC[C@@]67CCCN6C[C@H](F)C7)nc5c3F)N3CCCOC[C@H]3CO4)c12", "note": "[Example 20, 5-ethynyl-6-fluoro-4-((S)-1-fluoro-12-(((2R,7aS)-2-fluorotetrahydro-1H-pyrrolizin-7a(5H)-yl)methoxy)-5a,6,9,10-tetrahydro-5H,8H-4,7-dioxa-3,10a,11,13-tetraazanaphtho[1,8-ab]heptalen-2-yl)naphthalen-2-ol]", "IC50": 1.3}
{"smiles": "CCc1c(F)ccc2cc(O)cc(-c3nc4c5c(nc(OC[C@@]67CCCN6C[C@H](F)C7)nc5c3F)N3CCOC[C@H]3CO4)c12", "note": "[Example 5, 5-ethyl-6-fluoro-4-((S)-1-fluoro-11-(((2R,7aS)-2-fluorotetrahydro-1H-pyrrolizin-7a(5H)-yl)methoxy)-5a,6,8,9-tetrahydro-5H-4,7-dioxa-3,9a,10,12-tetraazabenzo[4,5]cyclohepta[1,2,3-de]naphthalen-2-yl)naphthalen-2-ol]", "IC50": 22}
{"smiles": "C#Cc1c(F)ccc2cc(O)cc(-c3nc4c5c(nc(OC[C@@]67CCCN6C[C@H](F)C7)nc5c3F)N3CCOC[C@H]3CO4)c12", "note": "[Example 4, 5-ethynyl-6-fluoro-4-((S)-1-fluoro-11-(((2R,7aS)-2-fluorotetrahydro-1H-pyrrolizin-7a(5H)-yl)methoxy)-5a,6,8,9-tetrahydro-5H-4,7-dioxa-3,9a,10,12-tetraazabenzo[4,5]cyclohepta[1,2,3-de]naphthalen-2-yl)naphthalen-2-ol]", "IC50": 6.7}
{"smiles": "C#Cc1c(F)ccc2cc(O)cc(-c3cc4c5c(nc(OC[C@@]67CCCN6C[C@H](F)C7)nc5c3F)N3CCOC[C@H]3CO4)c12", "note": "[Example 2, 5-ethynyl-6-fluoro-4-((S)-4-fluoro-2-(((2R,7aS)-2-fluorotetrahydro-1H-pyrrolizin-7a(5H)-yl)methoxy)-8a,9,11,12-tetrahydro-8H-[1,4]oxazino[3′,4′:3,4][1,4]oxazepino[5,6,7-de]quinazolin-5-yl)naphthalen-2-ol]", "IC50": 178}
{"smiles": "Oc1cc(Cl)c(C2CC2)c(-c2nc3c4c(nc(OC[C@@]56CCCN5C[C@H](F)C6)nc4c2F)N2CCOC[C@H]2CO3)c1", "note": "[Example 6, 3-chloro-4-cyclopropyl-5-((S)-1-fluoro-11-(((2R,7aS)-2-fluorotetrahydro-1H-pyrrolizin-7a(5H)-yl)methoxy)-5a,6,8,9-tetrahydro-5H-4,7-dioxa-3,9a,10,12-tetraazabenzo[4,5]cyclohepta[1,2,3-de]naphthalen-2-yl)phenol]", "IC50": 118}
{"smiles": "N#Cc1c(N)sc2c(F)ccc(-c3cc4c5c(nc(OC[C@@]67CCCN6C[C@H](F)C7)nc5c3F)N3CCOC[C@H]3CO4)c12", "note": "[Example 1, 2-amino-7-fluoro-4-((S)-4-fluoro-2-(((2R,7aS)-2-fluorotetrahydro-1H-pyrrolizin-7a(5H)-yl)methoxy)-8a,9,11,12-tetrahydro-8H-[1,4]oxazino[3′,4′:3,4][1,4]oxazepino[5,6,7-de]quinazolin-5-yl)benzo[b]thiophene-3-carbonitrile]", "IC50": 161}
{"smiles": "C#Cc1c(F)ccc2cc(O)cc(-c3nc4c5c(nc(OC[C@@]67CCCN6C[C@H](F)C7)nc5c3F)N3CCOCCC3CO4)c12", "note": "(stereo partly drawn) [Example 22, 5-ethynyl-6-fluoro-4-(1-fluoro-12-(((2R,7aS)-2-fluorotetrahydro-1H-pyrrolizin-7a(5H)-yl)methoxy)-5,5a,6,7,9,10-hexahydro-4,8-dioxa-3,10a,11,13-tetraazanaphtho[1,8-ab]heptalen-2-yl)naphthalen-2-ol]", "IC50": 13}
{"smiles": "N#Cc1c(N)sc2c(F)ccc(-c3c(Cl)c4c5c(nc(OC[C@@]67CCCN6C[C@H](F)C7)nc5c3F)N3C5CCC3(COC5)CO4)c12", "note": "(stereo partly drawn) [Example 15, 2-amino-4-(11-chloro-9-fluoro-7-(((2R,7aS)-2-fluorotetrahydro-1H-pyrrolizin-7a(5H)-yl)methoxy)-3,4-dihydro-1H,13H-4,13a-ethano[1,4]oxazino[3′,4′:3,4][1,4]oxazepino[5,6,7-de]quinazolin-10-yl)-7-fluorobenzo[b]thiophene-3-carbonitrile]", "IC50": 83}
{"smiles": "C#Cc1c(F)ccc2cc(O)cc(-c3nc4c5c(nc(OCC6(CN7CCOCC7)CC6)nc5c3F)N3CCOC[C@H]3CO4)c12", "note": "[Example 8, (S)-5-ethynyl-6-fluoro-4-(1-fluoro-11-((1-(morpholinomethyl)cyclopropyl)methoxy)-5a,6,8,9-tetrahydro-5H-4,7-dioxa-3,9a,10,12-tetraazabenzo[4,5]cyclohepta[1,2,3-de]naphthalen-2-yl)naphthalen-2-ol]", "IC50": 43}
{"smiles": "N#Cc1c(N)sc2c(F)ccc(-c3c(Cl)c4c5c(nc(OC[C@@]67CCCN6C[C@H](F)C7)nc5c3F)N3CCOC[C@H]3CO4)c12", "note": "(single isomer, unassigned) [Example 14-Isomer 2]", "IC50": 33}
{"smiles": "Nc1cc(Cl)c(C(F)(F)F)c(-c2nc3c4c(nc(OC[C@@]56CCCN5C[C@H](F)C6)nc4c2F)N2CCOCCC2CO3)c1", "note": "(stereo partly drawn) [Example 21, 3-chloro-5-(1-fluoro-12-(((2R,7aS)-2-fluorotetrahydro-1H-pyrrolizin-7a(5H)-yl)methoxy)-5,5a,6,7,9,10-hexahydro-4,8-dioxa-3,10a,11,13-tetraazanaphtho[1,8-ab]heptalen-2-yl)-4-(trifluoromethyl)aniline]", "IC50": 74}
{"smiles": "Nc1cc(Cl)c(C(F)(F)F)c(-c2nc3c4c(nc(OC[C@@]56CCCN5C[C@H](F)C6)nc4c2F)N2CCOC[C@H]2CO3)c1", "note": "[Example 3, 3-chloro-5-((S)-1-fluoro-11-(((2R,7aS)-2-fluorotetrahydro-1H-pyrrolizin-7a(5H)-yl)methoxy)-5a,6,8,9-tetrahydro-5H-4,7-dioxa-3,9a,10,12-tetraazabenzo[4,5]cyclohepta[1,2,3-de]naphthalen-2-yl)-4-(trifluoromethyl)aniline]", "IC50": 133}
{"smiles": "N#Cc1c(N)sc2c(F)ccc(-c3c(Cl)c4c5c(nc(OC[C@@]67CCCN6C[C@H](F)C7)nc5c3F)N3CCOC[C@@H]3CCO4)c12", "note": "[Example 18]", "IC50": 30}
{"tested_on": "pERK1/2(THR202/TYR204) level in AsPC-1 cell line", "experiment": "KRAS G12D pERK assay", "type": "cell-based", "conditions": "Homo sapiens, ASPC1, 2 h, AsPC-1 cells, 2 h compound treatment, HTRF", "protocol": "as §1, with “AsPC-1” for “SW620”, “RPMI-1640” for “RPMI 1640”, “30000” for “40000”, “h” for “hrs”", "units": {"IC50": "nM"}}
{"smiles": "Nc1cc(Cl)c(C(F)(F)F)c(-c2nc3c4c(nc(OCC56COC(C(F)F)(C5)C6)nc4c2F)N2C[C@H]4CC[C@H](N4)[C@H]2CCO3)c1", "note": "[Example 35, 3-chloro-5-((6aR,7S,10R)-13-((1-(difluoromethyl)-2-oxabicyclo[2.1.1]hexan-4-yl)methoxy)-1-fluoro-5,6,6a,7,8,9,10,11-octahydro-4-oxa-3,11a,12,14,15-pentaaza-7,10-methanocyclohepta[4,5]cyclo-octa[1,2,3-de]naphthalen-2-yl)-4-(trifluoromethyl)aniline]", "IC50": 61}
{"smiles": "C#Cc1c(F)ccc2cc(O)cc(-c3nc4c5c(nc(OC[C@@]67CCCN6C[C@H](F)C7)nc5c3F)N3CCOC[C@H]3CO4)c12", "note": "[Example 4, 5-ethynyl-6-fluoro-4-((S)-1-fluoro-11-(((2R,7aS)-2-fluorotetrahydro-1H-pyrrolizin-7a(5H)-yl)methoxy)-5a,6,8,9-tetrahydro-5H-4,7-dioxa-3,9a,10,12-tetraazabenzo[4,5]cyclohepta[1,2,3-de]naphthalen-2-yl)naphthalen-2-ol]", "IC50": 76}
{"tested_on": "ERK1/2 phosphorylation in SW1990 tumors", "experiment": "SW1990 PD studies", "type": "in vivo, Female NCG mice", "conditions": "oral administration", "protocol": "Female NCG mice were subcutaneously implanted with 5×10^6 SW1990 cells per 200 μL PBS/matrigel in the right flank. After inoculation, when tumors reached a mean volume of approximately 350-450 mm^3 in size, mice were randomized into treatment groups. Randomized mice would receive a single dose of vehicle consisting of 0.5% MC or test compounds at various dose (e.g. 30, 50, or 100 mg/kg) by oral administration. Plasma was collected at 0.5, 2, 4, and 7 hours, and tumor was collected at 7 hours after dosing to determine exposure levels. Tumor fragments were snap frozen in homogenization tubes with liquid nitrogen and homogenized with T-PER Tissue Protein Extraction Buffer with protease and phosphatase inhibitors added fresh before use. Tumor lysates were then analyzed for ERK1/2 phosphorylation."}
{"smiles": "Nc1cc(Cl)c(C(F)(F)F)c(-c2nc3c4c(nc(OCC56COC(C(F)F)(C5)C6)nc4c2F)N2C[C@H]4CC[C@H](N4)[C@H]2CCO3)c1", "note": "[Example 35, 3-chloro-5-((6aR,7S,10R)-13-((1-(difluoromethyl)-2-oxabicyclo[2.1.1]hexan-4-yl)methoxy)-1-fluoro-5,6,6a,7,8,9,10,11-octahydro-4-oxa-3,11a,12,14,15-pentaaza-7,10-methanocyclohepta[4,5]cyclo-octa[1,2,3-de]naphthalen-2-yl)-4-(trifluoromethyl)aniline]", "oral pharmacodynamic effects": "enhanced oral pharmacodynamic effects"}
